Assay results: US20240299416A1, “TREATMENT OF NF-kB-MEDIATED DISEASE” (ReveraGen BioPharma, Inc., priority 2021, published 2024)

Experiments:
osteocalcin, P1NP, CTX = assay: VBP15-004 bone turnover biomarkers; format: in vivo, human
[1] = Growth (height percentile) and BMI vs external comparators; format: in vivo, human
Procedure: As with the CINRG DNHS comparators, group-matching criteria were prespecified in the iSAP, and 2 independent statisticians carried out the participant matching. […] There was no corresponding 12-month assessment in vamorolone-treated participants. (Assessments of vamorolone-treated trial participants were 0, 3, 6, and 18 months).
Standing height and weight were assessed at each study visit. Height z-score, body mass index (BMI; kg/m^2), and BMI z-score were calculated centrally. AE reporting was done per protocol in the vamorolone trials.
The current study is the first to evaluate the longer-term tolerability, efficacy, and safety of vamorolone in DMD. […] Given the variable timing of dose escalations, it was prespecified that initial analyses of drug-related efficacy and safety would be limited to those participants who had 18 months of treatment with 2.0 mg/kg/day vamorolone or more (dose group C+dose group D; n=23). Outcomes for these participants were compared to a group-matched cohort from the CINRG DNHS over 18 months (corticosteroid-naïve, n=19; corticosteroid-treated, n=68). Participants were matched for age and treatment period (±1 month), matching criteria were prespecified in the statistical analysis plan. Two independent statisticians carried out the matching.
Participants in the corticosteroid-treated CINRG DNHS group were treated for at least 18 months, but the total duration, dose, and regimens varied.

glucocorticoid receptor = biological target: T1, glucocorticoid receptor (Homo sapiens, UniProt P04150); details: cited from earlier work
T1 sequence (P04150 1-777): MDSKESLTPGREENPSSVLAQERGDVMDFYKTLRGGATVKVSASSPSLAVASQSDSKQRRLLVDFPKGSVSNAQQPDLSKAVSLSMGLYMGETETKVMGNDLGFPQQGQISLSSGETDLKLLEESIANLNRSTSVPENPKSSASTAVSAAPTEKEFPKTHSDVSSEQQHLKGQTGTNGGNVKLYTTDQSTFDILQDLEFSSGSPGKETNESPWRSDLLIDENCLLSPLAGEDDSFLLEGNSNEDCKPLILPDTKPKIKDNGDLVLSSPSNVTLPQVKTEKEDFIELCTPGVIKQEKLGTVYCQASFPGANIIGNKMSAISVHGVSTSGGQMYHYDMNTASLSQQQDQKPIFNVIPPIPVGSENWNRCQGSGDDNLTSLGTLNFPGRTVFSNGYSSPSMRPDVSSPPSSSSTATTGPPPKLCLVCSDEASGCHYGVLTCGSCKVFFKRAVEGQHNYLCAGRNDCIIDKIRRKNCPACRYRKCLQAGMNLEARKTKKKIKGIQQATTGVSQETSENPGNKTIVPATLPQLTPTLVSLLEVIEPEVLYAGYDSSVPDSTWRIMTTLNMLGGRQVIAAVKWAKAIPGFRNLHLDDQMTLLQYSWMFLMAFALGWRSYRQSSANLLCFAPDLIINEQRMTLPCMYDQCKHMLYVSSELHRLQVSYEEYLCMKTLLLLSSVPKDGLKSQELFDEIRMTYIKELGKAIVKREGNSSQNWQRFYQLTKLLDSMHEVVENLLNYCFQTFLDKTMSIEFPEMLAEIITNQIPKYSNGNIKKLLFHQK

[2] = VBP15-004 adverse events at 24 weeks; design: species or system human; details: in vivo
Description: In certain embodiments, the symptom may be an adverse event of special interest (AESI). In this context, AESIs are prespecified based on pre-defined MedDRA search criteria for eleven AESI categories for the corticosteroid class and then further stratified into AESI of at least moderate severity. The symptoms for treating DMD with corticosteroids include, but is not limited to, behavior adverse events, blood glucose related problems, gastrointestinal symptoms, increased arterial blood pressure, immune suppression/infections, skin/hair changes, cataracts/glaucoma, cushingoid features, weight gain, bone fractures, slow growth.
The second period of 24 weeks, where all participants receive vamorolone treatment on either of the two dose levels, will continue to capture additional longer-term safety and tolerability data.

[3] = VBP15-004 adverse events, Treatment Period 2 / cross-over; format: in vivo, human
Procedure: Subjects already on vamorolone continued on the allocated dose level. Efficacy at Week 48 was assessed by Time to Stand ([…]) velocity, 6-Minute Walk Test (6MWT), Time to Run/Walk 10 meters (TTRW) velocity, and North Star Ambulatory Assessment (NSAA). […] In contrast, the persistence of effects with vamorolone 2 mg/kg/day was less pronounced for some parameters. The safety profile was consistent for subjects who continued on the same dose of vamorolone throughout the study, with no increase in frequency or severity of adverse events being observed over time. […] In addition, vamorolone treatment at both doses reversed the growth impairment seen during prednisone treatment and was associated with fewer adverse events, including those associated with corticosteroid use.

[4] = vamorolone 18 months vs prednisone trial 12 months
[5] = vamorolone vs corticosteroid-naïve DNHS, 18 months
[6] = vamorolone vs corticosteroid-treated DNHS, 18 months
[7] = after switch from prednisone to vamorolone 6 mg/kg/day

- Osteocalcin, mean (SEM) change at Week 24 (osteocalcin, P1NP, CTX; Vamorolone 2.0 mg): 8.3 (3.1) ng/ml
- Procollagen 1 N-Terminal Propeptide (P1NP), mean (SEM) change at Week 24 (osteocalcin, P1NP, CTX; Vamorolone 2.0 mg): 48 (27) ng/mL
- Type I Collagen C-Telopeptides (CTX), mean (SEM) change at Week 24 (osteocalcin, P1NP, CTX; Vamorolone 2.0 mg): 177 (52) pg/mL
- Osteocalcin, difference vs. prednisone (osteocalcin, P1NP, CTX; Vamorolone 2.0 mg, Week 24): 23.5 ng/mL
- Procollagen 1 N-Terminal Propeptide (P1NP), difference vs. prednisone (osteocalcin, P1NP, CTX; Vamorolone 2.0 mg, Week 24): 182 ng/mL
- Type I Collagen C-Telopeptides (CTX), difference vs. prednisone (osteocalcin, P1NP, CTX; Vamorolone 2.0 mg, Week 24): 477 pg/mL
- Osteocalcin, mean (SEM) change at Week 24 (osteocalcin, P1NP, CTX; Vamorolone 6.0 mg): 1.7 (2.8) ng/ml
- Procollagen 1 N-Terminal Propeptide (P1NP), mean (SEM) change at Week 24 (osteocalcin, P1NP, CTX; Vamorolone 6.0 mg): −11 (22) ng/mL
- Type I Collagen C-Telopeptides (CTX), mean (SEM) change at Week 24 (osteocalcin, P1NP, CTX; Vamorolone 6.0 mg): 90 (44) pg/mL
- Osteocalcin, difference vs. prednisone (osteocalcin, P1NP, CTX; Vamorolone 6.0 mg, Week 24): 16.9 ng/mL
- Procollagen 1 N-Terminal Propeptide (P1NP), difference vs. prednisone (osteocalcin, P1NP, CTX; Vamorolone 6.0 mg, Week 24): 124 ng/mL
- Type I Collagen C-Telopeptides (CTX), difference vs. prednisone (osteocalcin, P1NP, CTX; Vamorolone 6.0 mg, Week 24): 390 pg/mL
- effect on bone biomarkers (osteocalcin, PINP, CTX) (osteocalcin, P1NP, CTX; Week 24, vamorolone 2.0 and 6.0 mg/kg): did not decrease bone biomarkers
- Mean BMI z-score, 18-month value (SD) ([1]; 18 months of treatment): 1.46 (0.62)
- Mean BMI z-score, change from baseline (SD) ([1]; 18 months of treatment): 0.411 (0.615)
- Mean height percentile for age, 18-month value (SD) ([1]; 18 months of treatment): 35.24 (29.82)
- Mean BMI z-score, change from baseline (SD) ([1]; 18 months of treatment, listed as vamorolone): 0.41
- LS Mean change in height percentiles for age ([1]; DMD children, 18 months treatment): +6.9
- Mean BMI z-score, baseline value (SD) ([1]; baseline of 18-month period): 1.03 (0.56)
- Mean height percentile for age, baseline value (SD) ([1]; baseline of 18-month period): 29.19 (24.66)
- Mean BMI z-score, baseline value (SD) ([1]; baseline of 18-month period, listed as vamorolone): 1.03
- BMI change from baseline to 18 months ([1]; original dose group B (0.75 mg/kg/day, escalated)): 0.5 kg/m^2
- BMI change from baseline to 18 months ([1]; original dose group C (2.0 mg/kg/day)): 1.11 kg/m^2
- BMI change from baseline to 18 months ([1]; original dose group D (6.0 mg/kg/day)): 2.55 kg/m^2
- Mean BMI z-score, LS mean difference (SE) [1, 4]: 0.066 (0.193)
- Mean height percentile for age, LS mean difference (SE) [1, 4]: 10.37 (3.86)
- Mean height percentile for age, LS mean difference (SE) ([1]; vamorolone 18 months vs prednisone trial 12 months, listed as vamorolone): 10.37
- Mean BMI z-score, LS mean difference (SE) [1, 5]: 0.899 (0.204)
- Mean height percentile for age, LS mean difference (SE) [1, 5]: 6.72 (3.48)
- Mean BMI z-score, LS mean difference (SE) [1, 6]: 0.282 (0.146)
- Mean height percentile for age, LS mean difference (SE) [1, 6]: 15.86 (3.70)
- Mean height percentile for age, LS mean difference (SE) ([1]; vamorolone vs corticosteroid-treated DNHS, 18 months, listed as vamorolone): 15.86
Structure (SMILES): C[C@@H]1C[C@H]2[C@@H]3CCC4=CC(=O)C=C[C@]4(C)C3=CC[C@]2(C)[C@@]1(O)C(=O)CO [Vamorolone, 17α,21-dihydroxy-16α-methylpregna-1,4,9(11)-triene-3,20-dione]
- binding to the glucocorticoid receptor (glucocorticoid receptor): potently binds
- clinically relevant psychiatric events, subjects [2]: no vamorolone-treated subjects
- Aggression, any severity, F ([2]; male, human, 24 weeks): 1
- Agitation, any severity, F ([2]; male, human, 24 weeks): 1
- Anxiety, any severity, F ([2]; male, human, 24 weeks): 1
- Any Behavior AESI, moderate/severe, F ([2]; male, human, 24 weeks): 1
- Irritability, any severity, F ([2]; male, human, 24 weeks): 3
- Mood altered, any severity, F ([2]; male, human, 24 weeks): 1
- Poor quality sleep, any severity, F ([2]; male, human, 24 weeks): 1
- Psychomotor hyperactivity, any severity, F ([2]; male, human, 24 weeks): 2
- Serious adverse events, F ([2]; male, human, 24 weeks): 1
- Skin laceration, any severity, F ([2]; male, human, 24 weeks): 1
- Skin laceration, moderate/severe, F ([2]; male, human, 24 weeks): 1
- Sleep disorder, any severity, F ([2]; male, human, 24 weeks): 1
- moderate/severe behavior problems, subjects ([2]; male, human, 24 weeks): 1.7%
- serious adverse events reported during vamorolone treatment ([3]; Treatment Period 2): Three
- number of adverse events [3, 7]: 44
- number of adverse events reported as behavioral disorders [3, 7]: 6
- number of adverse events typically associated with corticosteroids [3, 7]: 16
- reduction in number of adverse events [3, 7]: 37%
- reduction in number of adverse events typically associated with corticosteroids [3, 7]: 60%
- overall safety and tolerability in clinical studies ([3]; in vivo): generally safe and well-tolerated
